This is an account of results in patent US10934296B2, “4-imidazopyridazin-1-yl-benzamides as Btk inhibitors” (Merck Sharp & Dohme B.V., priority 2011, dated 2021).

Some results are limits rather than exact numbers.

In this assay the target is Btk enzyme (His-Btk) (Homo sapiens (Human), UniProt Q06187). Put plainly: Btk enzyme activity, IMAP fluorescence polarization assay. To be noted: 60 min pre-incubation, 5 μM ATP. Background: Polarisation of emitted light reports the rotation of a fluorescent probe.
Sequence of Btk enzyme (His-Btk) (Q06187 whole entry): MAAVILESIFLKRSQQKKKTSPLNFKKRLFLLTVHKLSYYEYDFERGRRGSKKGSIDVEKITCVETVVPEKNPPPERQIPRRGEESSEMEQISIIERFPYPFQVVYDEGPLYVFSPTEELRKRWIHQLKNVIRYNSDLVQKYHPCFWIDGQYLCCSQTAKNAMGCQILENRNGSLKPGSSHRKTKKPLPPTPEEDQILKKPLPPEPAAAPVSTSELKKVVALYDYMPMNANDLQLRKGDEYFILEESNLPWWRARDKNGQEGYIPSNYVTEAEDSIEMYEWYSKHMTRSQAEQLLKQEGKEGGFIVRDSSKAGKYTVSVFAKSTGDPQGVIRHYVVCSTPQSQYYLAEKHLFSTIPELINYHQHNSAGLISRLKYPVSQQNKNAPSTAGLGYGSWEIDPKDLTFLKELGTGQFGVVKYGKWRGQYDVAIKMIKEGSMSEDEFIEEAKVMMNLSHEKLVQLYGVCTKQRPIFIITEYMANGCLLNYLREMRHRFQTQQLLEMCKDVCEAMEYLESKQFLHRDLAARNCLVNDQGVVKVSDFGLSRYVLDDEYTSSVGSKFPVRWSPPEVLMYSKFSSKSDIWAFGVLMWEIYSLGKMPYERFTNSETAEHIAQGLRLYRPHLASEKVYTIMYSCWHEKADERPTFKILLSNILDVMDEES

For `Nc1nccn2c([C@@H]3CCCN3C(=O)/C=C/CN3CCCC3)nc(-c3ccc(C(=O)Nc4ccccn4)cc3)c12` [Example 2, (S,E)-4-(8-amino-3-(1-(4-(pyrrolidin-1-yl)but-2-enoyl)pyrrolidin-2-yl)imidazo[1,5-a]pyrazin-1-yl)-N-(pyridin-2-yl)benzamide], the “EC50 Btk activity values” (bin bounds in nM) is listed as below 100 nM. As to `COC/C=C/C(=O)N1CCC[C@H]1c1nc(-c2ccc(C(=O)Nc3ccccn3)cc2)c2c(N)nccn12` [Example 4, (S,E)-4-(8-amino-3-(1-(4-methoxybut-2-enoyl)pyrrolidin-2-yl)imidazo[1,5-a]pyrazin-1-yl)-N-(pyridin-2-yl)benzamide], the “EC50 Btk activity values” (bin bounds in nM) was below 100 nM. As to `Nc1nccn2c([C@@H]3CCCN3C(=O)c3ccnc(Cl)n3)nc(-c3ccc(C(=O)Nc4ccccn4)cc3)c12` [Example 5, (S)-4-(8-amino-3-(1-(2-chloropyrimidine-4-carbonyl)pyrrolidin-2-yl)imidazo[1,5-a]pyrazin-1-yl)-N-(pyridin-2-yl)benzamide], under “bin bounds in nM”, the “EC50 Btk activity values” is below 100 nM.

With `CN(C)C/C=C/C(=O)N1CCC[C@H]1c1nc(-c2ccc(C(=O)Nc3cc(F)ccn3)cc2)c2c(N)nccn12` [Example 7, (S,E)-4-(8-Amino-3-(1-(4-(dimethylamino)but-2-enoyl)pyrrolidin-2-yl)imidazo[1,5-a]pyrazin-1-yl)-N-(4-fluoropyridin-2-yl)benzamide], the “EC50 Btk activity values” (bin bounds in nM) was below 100 nM.

Turning to `CCc1ccnc(NC(=O)c2ccc(-c3nc([C@@H]4CCCN4C(=O)/C=C/COC)n4ccnc(N)c34)cc2)c1` [Example 11, (S,E)-4-(8-Amino-3-(1-(4-methoxybut-2-enoyl)pyrrolidin-2-yl)-imidazo[1,5-a]pyrazin-1-yl)-N-(4-ethylpyridin-2-yl)benzamide], for the setting “bin bounds in nM”, the “EC50 Btk activity values” was below 100 nM. In the case of `CC#CC(=O)N1CCCC[C@H]1c1nc(-c2ccc(C(=O)Nc3ccon3)cc2)c2c(N)nccn12` [Example 24, (S)-4-(8-Amino-3-(1-but-2-ynoylpiperidin-2-yl)imidazo[1,5-a]pyrazin-1-yl)-N-(isoxazol-3-yl)benzamide], the “EC50 Btk activity values” (bin bounds in nM) is below 100 nM. With `CN(C)CC#CC(=O)N1CCC[C@H]1c1nc(-c2ccc(C(=O)Nc3ccccn3)cc2)c2c(N)nccn12` [Example 40, (S)-4-(8-Amino-3-(1-(4-(dimethylamino)but-2-ynoyl)pyrrolidin-2-yl)imidazo[1,5-a]pyrazin-1-yl)-N-(pyridin-2-yl)benzamide], the “EC50 Btk activity values” (bin bounds in nM) was below 100 nM.

Turning to `COCC#CC(=O)N1CCC[C@H]1c1nc(-c2ccc(C(=O)Nc3ccccn3)cc2)c2c(N)nccn12` [Example 41, (S)-4-(8-Amino-3-(1-(4-methoxybut-2-ynoyl)pyrrolidin-2-yl)imidazo[1,5-a]pyrazin-1-yl)-N-(pyridin-2-yl)benzamide], the “EC50 Btk activity values” (bin bounds in nM) is reported as below 100 nM. The same measure, in the same setting: the result for `CC#CC(=O)N1CCC[C@H]1c1nc(-c2ccc(C(=O)Nc3ccccn3)c(F)c2)c2c(N)nccn12` [Example 50, (S)-4-(8-amino-3-(1-but-2-ynoylpyrrolidin-2-yl)imidazo[1,5-a]pyrazin-1-yl)-2-fluoro-N-(pyridin-2-yl)benzamide] reads below 100 nM.

For `COC/C=C/C(=O)N1CCC[C@H]1c1nc(-c2ccc(C(=O)Nc3cc(OC)ccn3)cc2)c2c(N)nccn12` [Example 51, (S,E)-4-(8-amino-3-(1-(4-methoxybut-2-enoyl)pyrrolidin-2-yl)imidazo[1,5-a]pyrazin-1-yl)-N-(4-methoxypyridin-2-yl)benzamide], the “EC50 Btk activity values” (bin bounds in nM) is on record as below 100 nM. With `COC/C=C/C(=O)N1CCC[C@H]1c1nc(-c2ccc(C(=O)Nc3ccccn3)c(F)c2)c2c(N)nccn12` [Example 52], where the note is “bin bounds in μM”, the “EC50 Btk activity values” was below 1000 nM.

Regarding `COC/C=C/C(=O)N1CCC[C@H]1c1nc(-c2ccc(C(=O)Nc3cc(F)ccn3)cc2)c2c(N)nccn12` [Example 53, (S,E)-4-(8-amino-3-(1-(4-methoxybut-2-enoyl)pyrrolidin-2-yl)imidazo[1,5-a]pyrazin-1-yl)-N-(4-fluoropyridin-2-yl)benzamide], the “EC50 Btk activity values” (bin bounds in μM) is below 1000 nM. Turning to `COC/C=C/C(=O)N1CCCC[C@H]1c1nc(-c2ccc(C(=O)Nc3ccon3)cc2)c2c(N)nccn12` [Example 54, (S,E)-4-(8-amino-3-(1-(4-methoxybut-2-enoyl)piperidin-2-yl)imidazo[1,5-a]pyrazin-1-yl)-N-(isoxazol-3-yl)benzamide], the “EC50 Btk activity values” (bin bounds in μM) is below 1000 nM. Still for that read-out and setting: then `COC/C=C/C(=O)N1CCCC[C@H]1c1nc(-c2ccc(C(=O)Nc3ncccn3)cc2)c2c(N)nccn12` [Example 55, (S,E)-4-(8-amino-3-(1-(4-methoxybut-2-enoyl)piperidin-2-yl)imidazo[1,5-a]pyrazin-1-yl)-N-(pyrimidin-2-yl)benzamide], with below 1000 nM. As for `Cc1cc(C(=O)Nc2ccccn2)ccc1-c1nc([C@@H]2CCCCN2C(=O)c2ccnc(Cl)n2)n2ccnc(N)c12` [Example 56, 4-(8-amino-3-((S)-1-(2-chloropyrimidine-4-carbonyl)piperidin-2-yl)imidazo[1,5-a]pyrazin-1-yl)-3-methyl-N-(pyridin-2-yl)benzamide], under “bin bounds in nM”, the “EC50 Btk activity values” was below 100 nM. As to `COC/C=C/C(=O)N1CCC[C@H]1c1nc(-c2ccc(C(=O)Nc3cc(C)ccn3)cc2)c2c(N)nccn12` [Example 57, (S,E)-4-(8-amino-3-(1-(4-methoxybut-2-enoyl)pyrrolidin-2-yl)imidazo[1,5-a]pyrazin-1-yl)-N-(4-methylpyridin-2-yl)benzamide], the “EC50 Btk activity values” (bin bounds in nM) is recorded as below 100 nM.

For the compound `COC/C=C/C(=O)N1CCC[C@H]1c1nc(-c2ccc(C(=O)Nc3cc(C(C)C)ccn3)cc2)c2c(N)nccn12` [Example 58, (S,E)-4-(8-amino-3-(1-(4-methoxybut-2-enoyl)pyrrolidin-2-yl)imidazo[1,5-a]pyrazin-1-yl)-N-(4-isopropylpyridin-2-yl)benzamide], the “EC50 Btk activity values” (bin bounds in nM) was below 100 nM. For the compound `Cc1ccnc(NC(=O)c2ccc(-c3nc([C@@H]4CCCN4C(=O)/C=C/CN(C)C)n4ccnc(N)c34)cc2)c1` [Example 59, (S,E)-4-(8-amino-3-(1-(4-(dimethylamino)but-2-enoyl)pyrrolidin-2-yl)imidazo[1,5-a]pyrazin-1-yl)-N-(4-methylpyridin-2-yl)benzamide], the “EC50 Btk activity values” (bin bounds in nM) was below 100 nM.

Take `C=CC(=O)N1CCCC[C@H]1c1nc(-c2ccc(C(=O)Nc3ccccn3)cc2C)c2c(N)nccn12` [Example 68, 4-(3-((S)-1-acryloylpiperidin-2-yl)-8-aminoimidazo[1,5-a]pyrazin-1-yl)-3-methyl-N-(pyridin-2-yl)benzamide]: under “bin bounds in μM”, the “EC50 Btk activity values” was below 1000 nM. With `CN(C)C/C=C/C(=O)NCc1nc(-c2ccc(C(=O)Nc3ccccn3)cc2)c2c(N)nccn12` [Example 69, (E)-4-(8-amino-3-((4-(dimethylamino)but-2-enamido)methyl)imidazo[1,5-a]pyrazin-1-yl)-N-(pyridin-2-yl)benzamide], the “EC50 Btk activity values” (bin bounds in nM) is listed as below 100 nM. `CC(C)c1ccnc(NC(=O)c2ccc(-c3nc([C@@H]4CCCN4C(=O)c4ccnc(Cl)n4)n4ccnc(N)c34)cc2)c1` [Example 70, (S)-4-(8-amino-3-(1-(2-chloropyrimidine-4-carbonyl)pyrrolidin-2-yl)imidazo[1,5-a]pyrazin-1-yl)-N-(4-isopropylpyridin-2-yl)benzamide]: the “EC50 Btk activity values” (bin bounds in nM) was below 100 nM. Take `Nc1nccn2c([C@@H]3CCCN3C(=O)c3ccnc(Cl)n3)nc(-c3ccc(C(=O)Nc4nc5c(s4)CCCC5)cc3)c12` [Example 71, (S)-4-(8-amino-3-(1-(2-chloropyrimidine-4-carbonyl)pyrrolidin-2-yl)imidazo[1,5-a]pyrazin-1-yl)-N-(4,5,6,7-tetrahydrobenzo[d]thiazol-2-yl)benzamide]: the “EC50 Btk activity values” (bin bounds in nM) is recorded as below 100 nM.

With `COC/C=C/C(=O)N1CCCC[C@H]1c1nc(-c2ccc(C(=O)Nc3cccnn3)cc2)c2c(N)nccn12` [Example 72, (S,E)-4-(8-amino-3-(1-(4-methoxybut-2-enoyl)piperidin-2-yl)imidazo[1,5-a]pyrazin-1-yl)-N-(pyridazin-3-yl)benzamide], where the note is “bin bounds in μM”, the “EC50 Btk activity values” was below 1000 nM. `CN(C)C/C=C/C(=O)N1CCCC[C@H]1c1nc(-c2ccc(C(=O)Nc3cccnn3)cc2)c2c(N)nccn12` [Example 73, (S,E)-4-(8-amino-3-(1-(4-(dimethylamino)but-2-enoyl)piperidin-2-yl)imidazo[1,5-a]pyrazin-1-yl)-N-(pyridazin-3-yl)benzamide]: the “EC50 Btk activity values” (bin bounds in nM) is listed as below 100 nM. As for `Nc1nccn2c([C@@H]3CCCCN3C(=O)c3ccnc(Cl)n3)nc(-c3ccc(C(=O)Nc4cccnn4)cc3)c12` [Example 74, (S)-4-(8-amino-3-(1-(2-chloropyrimidine-4-carbonyl)piperidin-2-yl)imidazo[1,5-a]pyrazin-1-yl)-N-(pyridazin-3-yl)benzamide], for the setting “bin bounds in μM”, the “EC50 Btk activity values” was below 1000 nM.

On to `Nc1nccn2c([C@@H]3CCCCN3C(=O)c3ccnc(Cl)n3)nc(-c3ccc(C(=O)Nc4cc(F)ccn4)cc3)c12` [Example 80, (S)-4-(8-amino-3-(1-(2-chloropyrimidine-4-carbonyl)piperidin-2-yl)imidazo[1,5-a]pyrazin-1-yl)-N-(4-fluoropyridin-2-yl)benzamide], for which the “EC50 Btk activity values” (bin bounds in nM) is below 100 nM. Same read-out and setting: then `COC/C=C/C(=O)N1CCCC[C@H]1c1nc(-c2ccc(C(=O)Nc3cc(F)ccn3)cc2)c2c(N)nccn12` [Example 81, (S,E)-4-(8-amino-3-(1-(4-methoxybut-2-enoyl)piperidin-2-yl)imidazo[1,5-a]pyrazin-1-yl)-N-(4-fluoropyridin-2-yl)benzamide], with below 100 nM; and `COC/C=C/C(=O)N1CCC[C@H]1c1nc(-c2ccc(C(=O)Nc3nc4c(s3)CCCC4)cc2)c2c(N)nccn12` [Example 82, (S,E)-4-(8-amino-3-(1-(4-methoxybut-2-enoyl)pyrrolidin-2-yl)imidazo[1,5-a]pyrazin-1-yl)-N-(4,5,6,7-tetrahydrobenzo[d]thiazol-2-yl)benzamide], with below 100 nM.
